The values that follow come from patent US20150044193A1, “COMPOSITIONS AND METHODS FOR THE TREATMENT OF ALTERED a-SYNUCLEIN FUNCTION” (Neuraltus Pharmaceuticals, Inc., priority 2008, published 2015).

Data set [1] concerns α-synuclein. The data set is described as follows: Western blot of α-synuclein in non-differentiated SH-SY5Y cells exposed to CBE. Type of data set: cell-based, human. Particulars: non-differentiated neuroblastoma cells, 48 h exposure. As for the experimental part: (§1) The treatment paradigm is depicted in FIG. 1. SH-SY5Y cells were grown in Dulbecco's modified Eagle medium with 10% fetal calf serum, 2 mM glutamine, and were subcultured 1:5 with TrypLE (GIBCO/Invitrogen; Carlsbad, Calif.) using standard tissue culture techniques. The cells were differentiated in neurobasal media supplemented with B-27 and 40 μM retinoic acid for 7 days (Pahlman et al., 1984). Cells were exposed to CBE at doses of 0, 12.5, 25, 50, 100 or 200 μM in dimethyl sulfoxide (DMSO; Sigma Chemicals; St. Louis, Mo.) for 48 h at 37° C. At this time, cultures were washed with HBSS and trypsinized for 10 min followed by centrifugation at 1,000×g for 10 min to pellet cells. Media was removed, and cells were lysed in 10 mM Tris/1 mM EDTA/protease inhibitor cocktail (1:1000; Sigma) by sonication. Samples were centrifuged at 1,000×g for 10 min; the supernatant fraction was decanted from particulate fraction. Following determination of protein concentration using the BCA protein assay (Pierce Chemicals, Rockford, Ill.), samples were frozen until used for Western blot analysis experiments.
To test determine if the inhibition of GCase would elicit changes in cellular α-synuclein level, the protein levels were evaluated by using Western blot analysis in non-differentiated SH-SY5Y cells and cells differentiated to the neuronal phenotype, at 48 h following exposure to CBE. […]
Background: Immunoblotting shows a protein as a band on a membrane.

The test system of data set [2] is α-synuclein mRNA. Particulars: astroglial cultures challenged with CBE; cited from earlier work.
Data set [3] has as its system GFAP. Put plainly: GFAP immunohistochemistry (astroglial activation) in brain of CBE-treated mice. Type of data set: in vivo, C57BL/6 mice. To be noted: single 200 mg/kg, 48 h. On the procedure: (§2) The administration paradigm is depicted in FIG. 2. Mice (C57BL/6) were maintained on a 12 h light-dark cycle and given food and drinking water ad libitum. All animal procedures and care methods were approved by the Institutional Animal Care and Usage Committee. In experiments to test the effects of CBE on α-synuclein protein, C57BL/6 male mice, aged 8 weeks, were used as previously described with some modifications (Kanfer et al., 1975, Adachi and Volk, 1977, Kanfer et al., 1982). Mice (n=8/group) received a single i. p. injection of 200 mg/kg CBE (Sigma) in DMSO or the vehicle alone and killed 2 days after injection. For Western blot analyses, brains were removed, dissected on ice and frozen on dry ice until needed (Manning-Bog et al., 2002, Purisai et al., 2005). For experiments utilizing immunohistochemistry, brains were immersion fixed in 4% paraformaldehyde and successively cryoprotected in 10 and 30% sucrose over the course of 72 h (Manning-Bog et al., 2002, Manning-Bog et al., 2003). […]
Substantia nigra-containing tissue sections were immunostained using an antibody for the astrocytic marker, glial fibrillary acidic protein (GFAP). […] Alternatively, it may be that upregulation is responsible for increased α-synuclein levels in astrocytes. α-synuclein has been detected in cultured human astrocytes, and its expression level is responsive to cytokine exposure (Tanji et al., 2001).

Data set [4] has as its system α-synuclein. The data set is described as follows: α-synuclein in substantia nigra of aged mice treated sub-chronically with CBE. Particulars: sub-chronic CBE vs. DMSO. The class given is in vivo. The text has this: It is likely that sustained glucocerebrosidase inhibition promotes increased levels of the α-synuclein expression protein.
In data set [5] the test system is α-synuclein mRNA. The data set is described as follows: RT-PCR of α-synuclein mRNA in SH-SY5Y cells treated with CBE. Type of data set: cell-based, human. As for the experimental part: […] The cDNAs were prepared by reverse transcription (Superscript III; Invitrogen). PCR was performed using the ABI PRISM 7000 Sequence Detection System and primers. The cycle number at which each PCR reaction reached a significant threshold (CT) during the log phase of the amplification was used as a relative measure of transcript expression. The CT of the α-synuclein gene was calibrated against that of the reference gene […].
To test determine if the inhibition of GCase would elicit changes in cellular α-synuclein level, the protein levels were evaluated by using Western blot analysis in non-differentiated SH-SY5Y cells and cells differentiated to the neuronal phenotype, at 48 h following exposure to CBE. […] In order to determine whether increased levels of the protein were due to enhanced transcription, RT-PCR was performed to measure transcript levels in SH-SY5Y treated with CBE. […] These findings indicate that increased α-synuclein levels observed following CBE exposure are not due to enhanced expression (FIG. 3b).

The subject of data set [6] is α-synuclein. The data set is described as follows: α-synuclein immunohistochemistry in brain of CBE-treated mice. The class given is in vivo, C57BL/6 mice. Particulars: single 200 mg/kg, 48 h. As for the experimental part: as §2, with “2003). Brains were sectioned at 40-μm intervals and stored in cryopreservative solution at −20° C. until needed.” for “2003).”
The effects of CBE exposure on α-synuclein within the ventral mesencephalon were also assessed histologically with immunohistochemistry. […]

The subject of data set [7] is α-synuclein. The data set is described as follows: Western blot of α-synuclein in ventral mesencephalon fractions of CBE-treated mice. The class given is in vivo, C57BL/6 mice. Particulars: single i.p. 200 mg/kg, 48 h. On the procedure: The administration paradigm is depicted in FIG. 2. Mice (C57BL/6) were maintained on a 12 h light-dark cycle and given food and drinking water ad libitum. All animal procedures and care methods were approved by the Institutional Animal Care and Usage Committee. In experiments to test the effects of CBE on α-synuclein protein, C57BL/6 male mice, aged 8 weeks, were used as previously described with some modifications (Kanfer et al., 1975, Adachi and Volk, 1977, Kanfer et al., 1982). Mice (n=8/group) received a single i. p. injection of 200 mg/kg CBE (Sigma) in DMSO or the vehicle alone and killed 2 days after injection. For Western blot analyses, brains were removed, dissected on ice and frozen on dry ice until needed (Manning-Bog et al., 2002, Purisai et al., 2005). For experiments utilizing immunohistochemistry, brains were immersion fixed in 4% paraformaldehyde and successively cryoprotected in 10 and 30% sucrose over the course of 72 h (Manning-Bog et al., 2002, Manning-Bog et al., 2003). Brains were sectioned at 40-μm intervals and stored in cryopreservative solution at −20° C. until needed.
Fractions from ventral mesencephalon separated by the centrifugation were utilized for immunoblotting experiments. Following homogenization in 10 mM Tris/1 mM EDTA/protease inhibitor cocktail (1:1000; Sigma, St. Louis, Mo.) by sonication, samples were centrifuged at 1,000×g for […]. The supernatant fraction (S1) was decanted and stored, and the pellet fraction containing nuclei and large membrane fragments were reconstituted in homogenization buffer (P1 fraction). The protein concentration was measured. […]
C57BL/6 mice were exposed to a single injection of CBE and assessed for changes in α-synuclein at 48 h to determine whether diminished GCase activity is associated with alterations in the protein in vivo, specifically within the substantia nigra. […] In tissue homogenates from ventral mesencephalon of CBE vs. DMSO (vehicle)-treated mice, α-synuclein immunoreactivity was assessed by Western blot analysis.

Data set [8] has as its system nigral neurons. The data set is described as follows: Silver grain accumulation (degenerating neurons) in substantia nigra of CBE-treated mice. Particulars: CBE- vs. DMSO-treated mice. The class given is in vivo.
The test system of data set [9] is SH-SY5Y cells. Put plainly: Overt toxicity in SH-SY5Y cells treated with GCase inhibitor. Particulars: SH-SY5Y cells treated with CBE. Type of data set: cell-based, human.
Data set [10] deals with α-synuclein. The data set is described as follows: Western blot of α-synuclein in differentiated SH-SY5Y cells exposed to CBE. Type of data set: cell-based, human. On the procedure:
as §1
Fractions from ventral mesencephalon separated by the centrifugation were utilized for immunoblotting experiments. Following homogenization in 10 mM Tris/1 mM EDTA/protease inhibitor cocktail (1:1000; Sigma, St. Louis, Mo.) by sonication, samples were centrifuged at 1,000×g for […]. The supernatant fraction (S1) was decanted and stored, and the pellet fraction containing nuclei and large membrane fragments were reconstituted in homogenization buffer (P1 fraction). The protein concentration was measured. After proteins were separated by SDS-PAGE and transferred to nitrocellulose, the blots were blocked and incubated overnight at 4° C. with anti-α-synuclein (Signet; Novus Biologicals, Littleton, Colo.; Abcam, Cambridge, Mass.; Santa Cruz Biotechnology, Santa Cruz, Calif.) or anti-GAPDH (Sigma). Appropriate secondary antibodies conjugated to HRP were applied, and blots were incubated with a chemiluminescent substrate (Pierce) and exposed to Kodak X-Omat Blue Film (Kodak, Rochester, N.Y.). Mouse or rabbit IgG was used in lieu of the primary antibody to ensure specificity in control experiments.
To test determine if the inhibition of GCase would elicit changes in cellular α-synuclein level, the protein levels were evaluated by using Western blot analysis in non-differentiated SH-SY5Y cells and cells differentiated to the neuronal phenotype, at 48 h following exposure to CBE. […] In order to determine whether increased levels of the protein were due to enhanced transcription, RT-PCR was performed to measure transcript levels in SH-SY5Y treated with CBE. […]

Entries after “also recorded” stand apart in the source; their conditions may differ.

For the compound `O[C@H]1[C@H](O)[C@@H](O)[C@@H]2O[C@@H]2[C@@H]1O` (racemic) [CBE, Conduritol B epoxide], the “α-synuclein protein levels (Western blot)” value in data set [1] is “No change in α-synuclein was detected”. Besides, in data set [2], the “expression of α-synuclein mRNA” value was “enhanced expression of α-synuclein mRNA”. Besides, the “α-synuclein within astrocytes of substantia nigra (dual-label immunofluorescence)” value in data set [3] is given as “enhanced α-synuclein was also detected within activated astrocytes; also recorded: colocalization of α-synuclein immunoreactivity was observed within astrocytes”. Moreover, the “GFAP immunoreactivity / astroglial activation in substantia nigra” value in data set [3] (CBE vs. vehicle) is reported as “astroglial activation, as observed by GFAP immunoreactivity, was apparent; also recorded: apparent increase; also recorded: Glial activation was robust”. Further, the “α-synuclein expression within substantia nigra” value in data set [4] is on record as “Increased α-synuclein expression”. Further, the “α-synuclein gene expression (RT-PCR)” value in data set [5] (SH-SY5Y, any dose tested, 24 h following CBE treatment) was “No change in α-synuclein gene expression was detected”. Further, in data set [5] (differentiated SH-SY5Y, increasing concentrations of CBE, (FIG. 3B legend)), the “α-synuclein transcription (mRNA, RT-PCR)” value is listed as “No change in α-synuclein transcription was detected”. Also, the “α-synuclein in other brain regions (cortex, hippocampus)” value in data set [6] is reported as “No obvious changes in α-synuclein; also recorded: No alteration in protein levels”. Moreover, in data set [6] (CBE vs. vehicle), the “α-synuclein immunoreactivity in substantia nigra neurons” value was “robust immunoreactivity was observed within the cell bodies; also recorded: enhanced immunoreactivity for α-synuclein was detected within the cytoplasm and cell nuclei; also recorded: accumulation of the protein within neuronal cell bodies; also recorded: apparent increase; also recorded: accumulation of α-synuclein (FITC) within cell bodies and processes”. The “higher molecular forms of α-synuclein (SDS-stable aggregates)” value in data set [7] is “No immunoreactivity for higher molecular forms of α-synuclein”. In data set [7] (CBE vs. DMSO, 200 mg/kg), the “α-synuclein levels in P1 (particulate) fraction, monomeric 19 kDa band” value is reported as “Denser α-synuclein-positive bands; also recorded: levels of α-synuclein were increased in the particulate fraction; also recorded: an increase in α-synuclein levels” and the “α-synuclein levels in S1 (supernatant) fraction” value is “no alteration; also recorded: no change”. Also, the “silver grains in nigral neurons (degenerating neurons)” value in [8] is recorded as “Accumulation of silver grains in nigral neurons”. For the same compound, the “overt toxicity within cells” value in [9] is on record as “no overt toxicity”. In addition, in data set [10] (CBE-exposed neuroblastoma cells differentiated to neuronal phenotype), the “immunoreactivity for α-synuclein in tissue culture” value was “increased immunoreactivity for α-synuclein”. The “CBE concentrations at which increased α-synuclein levels were seen” value in data set [10] (differentiated SH-SY5Y cells, 48 h, Western blot) is 50 to 200 µM. In addition, the “dose at which increased α-synuclein protein levels peak” value in data set [10] (differentiated SH-SY5Y cells, 48 h, doses 0-200 μM tested) turned out to be 50 µM. In addition, the “α-synuclein protein levels (Western blot)” value in [10] (differentiated SH-SY5Y cells, 48 h exposure, CBE vs. vehicle) was “increased levels of α-synuclein protein were observed”.
